Measured values taken from patent US8951563B2, “Antibiotic drug delivery and potentiation” (Technion Research & Development Foundation Limited, priority 2009, dated 2015).
In brackets after ≈: the same amount, converted by molar mass.

Assays:
[1] = tested on: E. coli; assay type: cell-based
Method: (§1) All bacteria were cultured in Luria-Bertani (LB) medium (10 g/l tryptone, 5 g/l yeast extract, 5 g/l NaCl, pH 7.4).
(§2) Bacteria were grown overnight in LB growth medium and diluted 10,000-fold in same medium.
(§3) Inhibition of proliferation was determined by optical density measurements (620 nm) after incubation overnight at 37° C.

[2] = tested on: A. aureus; assay type: cell-based
Method: as §1, §2, §3

[3] = Cochleate formation by light microscopy; assay type: physicochemical; parameters: key: or above (E!); excellent (E); good (G); poor (P); none (N)
Method: Lipid films containing binary mixtures of lipids were made from aliquots of stock solutions in chloroform:methanol (2:1). The solvent was evaporated with a stream of nitrogen gas and the lipids deposited as a film on the walls of a glass tube. The tubes were then placed in a vacuum dessicator for 3 hours. The films were kept under Argon at −20° C. The lipid films were hydrated with buffer solutions of OAK polymers with extensive vortexing, so as to have a lipid to polymer molar ratio of […].
Hydrated films were subjected to freeze thawing three times before imaging, to ensure proper equilibration of OAK with the multilamellar vesicles. A drop of this mixture was placed on a glass slide and covered with a glass coverslip. Light microscopy was carried out at room temperature using a Zeiss Axiovert 100M microscope with a Plan-Neofluar 100×/1.3 oil immersion objective. Images were analyzed with the Zeiss LSM image browser v2.8.
The morphology of the samples of different OAKs and different lipid mixtures could be classified into the following categories.
Table 5 presents the results of cochleate formation with different lipid mixtures of 1:10 lipid to polymer ratio, and a series of OAK polymers, indicated by their alternative denotations and SED ID Nos in parentheses. “Tm” denotes the melting temperature of the lipid bilayer afforded by the given lipid mixture. Some selected samples were further analyzed to confirm the results with freeze fracture electron microscopy for, as indicated in Table 5. Cochleate formation is defined as excellent (E) or above (E!), good (G), poor (P), or none (N) based on the aforementioned comparison, as well as on the abundance of cochleate structures observed in the light microscopy images. Lipid mixtures having a number in parenthesis are samples for which freeze-fracture electron microscopy analysis was conducted. Lipid mixtures having a “+” sign next to the number in parenthesis are samples which were confirmed by freeze-fracture electron microscopy as forming large cochleates with few vesicles and no inverted micellar (HII) morphology (samples 2, 3 and 5), or smaller cochleate structures mixed with other morphologies (samples 0 and 4). Lipid mixtures which contain only anionic lipids are marked with “^A”. Sample 0 is the lipid/OAK system used and presented in Example 1 hereinabove.

[4] = Molecular charge and RP-HPLC hydrophobicity of polymers; assay type: physicochemical; conditions: HPLC-RP gradient mobile phase
Source text: Briefly, the polymers were synthesized while applying the Fmoc active ester chemistry on a fully automated, programmable peptide synthesizer (Applied Biosystems 433A). After cleavage from the resin, the crude product was extracted with 30% acetonitrile in water and purified by RP-HPLC (Alliance Waters), so as to obtain a chromatographic homogeneity higher than 95%. HPLC runs were typically performed on C18 columns (Vydac, 250 mm×4.6 or 10 mm) using a linear gradient of acetonitrile in water (1% per minute), both solvents containing 0.1% trifluoroacetic acid. The purified polymers were subjected to mass spectrometry (ZQ Waters) and NMR analyses to confirm their composition, and stored as a lyophilized powder at −20° C. Prior to being tested, fresh solutions were prepared in water, vortexed, sonicated, centrifuged and then diluted in the appropriate medium.
“Q” represents the overall molecular charge at physiological pH; “ACN (%)” represents the percent of acetonitrile in the HPLC-RP gradient mobile phase at which the polymer was eluted and which corresponds to the estimated hydrophobicity of the polymer. The column headed by “Ref.” indicates prior reference of the OAK if present, wherein a number in parentheses “(##)” corresponds to the SEQ ID NO in U.S. Pat. No. 7,504,381; the letter “R” indicates a polymer published in Radzishevsky I. S. et al. (2008), Chem. Biol., 15(4), pp. 354-362; and “New” indicates a novel polymer disclosed herein.

[5] = DMPC:TOCL 75:25, 1:10 lipid to polymer ratio
[6] = DMPE:DOPG 75:25, 1:10 lipid to polymer ratio
[7] = DMPE:TOCL 75:25, 1:10 lipid to polymer ratio
[8] = DMPG:TOCL 75:25 (anionic lipids only), 1:10 lipid to polymer ratio
[9] = DOPE:TOCL 75:25, 1:10 lipid to polymer ratio
[10] = DPPE:TOCL 75:25, 1:10 lipid to polymer ratio
[11] = POPC:TOCL 75:25, 1:10 lipid to polymer ratio
[12] = POPE:DOPG 75:25, 1:10 lipid to polymer ratio
[13] = POPE:DOPG:TOCL 80:15:5, 1:10 lipid to polymer ratio
[14] = POPE:TOCL 75:25, 1:10 lipid to polymer ratio
[15] = POPG:TOCL 75:25 (anionic lipids only), 1:10 lipid to polymer ratio
[16] = DMPE:TOCL75:25, 10:1 lipid to polymer ratio (Table 6)
[17] = POPE:TOCL 75:25, 10:1 lipid to polymer ratio (Table 6)

Structure (SMILES)	MIC E. coli [1]	MIC A. aureus [2]	Cochleate formation [3, 5]	Cochleate formation [3, 6]	Cochleate formation [3, 7]	Cochleate formation [3, 8]	Cochleate formation [3, 9]	Cochleate formation [3, 10]	Cochleate formation [3, 11]	Cochleate formation [3, 12]	Cochleate formation [3, 13]	Cochleate formation [3, 14]	Cochleate formation [3, 15]	ACN (%) (percent acetonitrile at elution, estimated hydrophobicity) [4]	Cochleate formation [3, 16]	Cochleate formation [3, 17]
CCCCCCCCCCCC(=O)N[C@@H](CCCCN)C(=O)NCCCCCCCC(=O)N[C@@H](CCCCN)C(=O)NCCCCCCCC(=O)N[C@@H](CCCCN)C(=O)NCCCCCCCC(=O)N[C@@H](CCCCN)C(=O)NCCCCCCCC(=O)N[C@@H](CCCCN)C(=O)NCCCCCCCC(=O)N[C@@H](CCCCN)C(N)=O [C12K-5α8, C12K(NC8K)5NH2]	3.1 µM (≈ 5.19 µg/mL)	50 µM (≈ 83.7 µg/mL)	N	E	P	G	N	E	P	G	N	G	P	49.7%		
CCCCCCCCCCCC(=O)N[C@@H](CCCCN)C(=O)NCCCCCCCC(=O)N[C@@H](CCCCN)C(=O)NCCCCCCCC(=O)N[C@@H](CCCCN)C(=O)NCCCCCCCC(=O)N[C@@H](CCCCN)C(=O)NCCCCCCCC(=O)N[C@@H](CCCCN)C(=O)NCCCCCCCC(=O)N[C@@H](CCCCN)C(=O)NCCCCCCCC(=O)N[C@@H](CCCCN)C(N)=O [C12K-6α8, C12K(NC8K)6NH2]	3.1 µM (≈ 6.03 µg/mL)	50 µM (≈ 97.2 µg/mL)		G								G		50%		
CCCCCCCCCCCC(=O)N[C@@H](CCCCN)C(=O)NCCCC(=O)N[C@@H](CCCCN)C(=O)NCCCC(=O)N[C@@H](CCCCN)C(=O)NCCCC(=O)N[C@@H](CCCCN)C(=O)NCCCC(=O)N[C@@H](CCCCN)C(=O)NCCCC(=O)N[C@@H](CCCCN)C(=O)NCCCC(=O)N[C@@H](CCCCN)C(=O)NCCCC(=O)N[C@@H](CCCCN)C(N)=O [C12K-7α4, C12K(NC4K)7NH2]	12.5 µM (≈ 22.8 µg/mL)	>50 µM												45.2%	G	G-E
CCCCCCCCCCCC(=O)N[C@@H](CCCCN)C(=O)NCCCCCCCCCCCC(=O)N[C@@H](CCCCN)C(=O)NCCCCCCCCCCCC(=O)N[C@@H](CCCCN)C(=O)NCCCCCCCCCCCC(=O)N[C@@H](CCCCN)C(=O)NCCCCCCCCCCCC(=O)N[C@@H](CCCCN)C(=O)NCCCCCCCCCCCC(=O)N[C@@H](CCCCN)C(=O)NCCCCCCCCCCCC(=O)N[C@@H](CCCCN)C(=O)NCCCCCCCCCCCC(=O)N[C@@H](CCCCN)C(N)=O [C12K-7α12, C12K(NC12K)7NH2]	>50 µM	>50 µM												55.2%	P	N
CCCCCCCCCCCC(=O)NC(CCCCN)C(=O)NCCCCCCCC(=O)NC(CCCCN)C(=O)NCCCCCCCC(=O)NC(CCCCN)C(=O)NCCCCCCCC(=O)NC(CCCCN)C(=O)NCCCCCCCC(=O)NC(CCCCN)C(=O)NCCCCCCCC(=O)NC(CCCCN)C(=O)NCCCCCCCC(=O)NC(CCCCN)C(=O)NCCCCCCCC(=O)NC(CCCCN)C(=O)NCCCCCCCC(=O)NC(CCCCN)C(N)=O (stereo not drawn) [C12K-8α8, C12K(NC8K)8NH2]	3.1 µM (≈ 7.7 µg/mL)	>50 µM		G	E		G	E		N	N	G		48.5%		
CCCCCCCCCCCC(=O)NC(CCCCN)C(=O)NCCCCCCCC(=O)NC(CCCCN)C(=O)NCCCCCCCC(=O)NC(CCCCN)C(=O)NCCCCCCCC(=O)NC(CCCCN)C(=O)NCCCCCCCC(=O)NC(CCCCN)C(=O)NCCCCCCCC(=O)NC(CCCCN)C(=O)NCCCCCCCC(=O)NC(CCCCN)C(=O)NCCCCCCCC(=O)NC(CCCCN)C(=O)NCCCCCCCC(=O)NC(CCCCN)C(=O)NCCCCCCCC(=O)NC(CCCCN)C(N)=O (stereo not drawn) [C12K-9α8, C12K(NC8K)9NH2]	6.25 µM (≈ 17.2 µg/mL)	>50 µM	N	E!	E	N	G	E	N	G		G	P	48.4%		
CCCCCCCCCCCC(=O)NC(CCCCN)C(=O)NCCCCCCCC(=O)NC(CCCCN)C(=O)NCCCCCCCC(=O)NC(CCCCN)C(=O)NCCCCCCCC(=O)NC(CCCCN)C(=O)NCCCCCCCC(=O)NC(CCCCN)C(=O)NCCCCCCCC(=O)NC(CCCCN)C(=O)NCCCCCCCC(=O)NC(CCCCN)C(=O)NCCCCCCCC(=O)NC(CCCCN)C(=O)NCCCCCCCC(=O)NC(CCCCN)C(=O)NCCCCCCCC(=O)NC(CCCCN)C(=O)NCCCCCCCC(=O)NC(CCCCN)C(=O)NCCCCCCCC(=O)NC(CCCCN)C(N)=O (stereo not drawn) [C12K-11α8, C12K(NC8K)11NH2]	3.1 µM (≈ 10.2 µg/mL)	>50 µM		E	G		G	P	P	P		G	N	42.2%		
NCCCCCCCCCCCC(=O)NC(CCCCN)C(=O)NCCCCCCCC(=O)NC(CCCCN)C(=O)NCCCCCCCC(=O)NC(CCCCN)C(=O)NCCCCCCCC(=O)NC(CCCCN)C(=O)NCCCCCCCC(=O)NC(CCCCN)C(=O)NCCCCCCCC(=O)NC(CCCCN)C(=O)NCCCCCCCC(=O)NC(CCCCN)C(=O)NCCCCCCCC(=O)NC(CCCCN)C(N)=O (stereo not drawn) [α12-7α8, NC12K(NC8K)7NH2]	12.5 µM (≈ 27.9 µg/mL)	50 µM (≈ 111 µg/mL)												36.9%	E	G-E
